Measured values: patent US4514420A, “Antifibrotic agent” (Takeda Chemical Industries, Ltd., priority 1982, dated 1985)
Values belong to the molecule of their own block, whether it stands above or below them.

Tests used:
[1] = biological target: T1, Protocollagen proline hydroxylase (Gallus gallus, UniProt P16924); experiment: Protocollagen proline hydroxylase-inhibiting activity; type: biochemical; settings: partially purified chick embryo enzyme, 100 μg as protein, substrate (Pro-Pro-Gly)5.4H2O; for inhibition at 20 µM: Concentration 20 μM
T1 construct: partially purified enzyme preparation derived from chick embryos; from tissue; host or cells: chick embryos
T1 sequence (P16924 1-516): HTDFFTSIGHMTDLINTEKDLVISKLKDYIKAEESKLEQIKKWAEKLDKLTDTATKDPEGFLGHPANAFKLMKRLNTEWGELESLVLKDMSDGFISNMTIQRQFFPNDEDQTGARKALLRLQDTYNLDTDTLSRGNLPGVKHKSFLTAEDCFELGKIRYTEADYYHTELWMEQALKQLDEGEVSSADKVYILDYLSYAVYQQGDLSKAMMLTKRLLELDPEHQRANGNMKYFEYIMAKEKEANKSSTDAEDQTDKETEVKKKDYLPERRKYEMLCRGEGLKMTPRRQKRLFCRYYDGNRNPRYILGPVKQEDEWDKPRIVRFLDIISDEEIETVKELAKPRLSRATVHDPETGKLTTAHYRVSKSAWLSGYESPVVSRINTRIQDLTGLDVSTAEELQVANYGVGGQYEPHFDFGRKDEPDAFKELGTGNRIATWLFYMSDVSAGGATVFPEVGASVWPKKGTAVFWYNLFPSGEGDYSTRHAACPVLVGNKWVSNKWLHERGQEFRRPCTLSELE
T1 sequence (P09102 23-515 partner): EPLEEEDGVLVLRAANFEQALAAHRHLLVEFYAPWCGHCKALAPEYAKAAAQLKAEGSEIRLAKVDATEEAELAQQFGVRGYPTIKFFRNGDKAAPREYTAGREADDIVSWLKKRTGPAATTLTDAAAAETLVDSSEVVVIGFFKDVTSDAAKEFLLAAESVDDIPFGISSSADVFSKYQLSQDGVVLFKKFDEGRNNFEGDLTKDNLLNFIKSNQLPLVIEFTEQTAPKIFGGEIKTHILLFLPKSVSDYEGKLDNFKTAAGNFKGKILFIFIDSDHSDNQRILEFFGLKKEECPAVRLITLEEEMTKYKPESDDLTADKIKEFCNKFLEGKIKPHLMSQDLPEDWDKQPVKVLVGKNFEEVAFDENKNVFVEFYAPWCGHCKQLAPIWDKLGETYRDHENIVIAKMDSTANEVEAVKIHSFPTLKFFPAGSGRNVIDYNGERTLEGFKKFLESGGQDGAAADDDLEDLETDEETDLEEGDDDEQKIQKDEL
Procedure: (1) Protocollagen proline hydroxylase-inhibiting activity
This inhibitory activity was assayed by the procedure of R. E. Rhoads et al. (Methods in Enzymology XVII B, 306 (1971)) using a partially purified enzyme preparation derived from chick embryos in accordance with the methods of K. I. Kivirriko et al. and J. Halme et al. (J. Biol. Chem. 242, 4007 (1967) and Biochem. Biophys. Acta 198, 460 (1967), and, as a substrate, (Pro-Pro-Gly)5.4H2 O (Protein Research Foundation, Osaka). In this assay, the partially purified enzyme preparation was used in the amount of 100 μg as protein. The results are shown in Table 1.

Collagen biosynthesis = Collagen biosynthesis inhibiting activity (collagen content of the uterus); type: in vivo, rats of SD strain; settings: female SD rats; for Collagen content of uterus / Body weight of rats: groups of 3; for Collagen content of uterus: control 1.64 ± 0.3; for Body weight of rats: control 73 ± 6
Procedure: (2) Collagen biosynthesis inhibiting activity
Basically in accordance with the method of R. A. Salvador et al. [Arch. Biochem. Biophys. 174, 382 (1976)], 0.2 mg/kg of each test compound was intraperitoneally administered to rats of SD strain (.female., 3 weeks old) once daily for 6 consecutive days and the collagen content of the uterus was compared with the control value.
*Rats were used in groups of 3. Initial body weights = 41 ± 2 ~

[2] = Toxicity, gastric gavage to rats in a 5-week regimen; type: in vivo; settings: 2500 mg/kg/day
From the text: The compound (I) is very low in toxicity.

[3] = 17β-Estradiol alone, 0.2 mg/kg intraperitoneally once daily for 6 consecutive days
[4] = given with 17β-Estradiol, 0.2 mg/kg of each test compound intraperitoneally once daily for 6 consecutive days

inhibition at 20 µM [1]: 35%
Structure (SMILES): COC1=C(OC)C(=O)C(CCCCCCCC(=O)O)=C(C)C1=O [A:CO n:7 R:H]

inhibition at 50 µM ([1]; Concentration 50 μM): 47%
Structure (SMILES): COC(=O)CCCC1=C(C)C(=O)C(OC)=C(OC)C1=O [A:CO n:3 R:CH3]

Structure (SMILES): C[C@]12CC[C@@H]3c4ccc(O)cc4CC[C@H]3[C@@H]1CC[C@@H]2O [17β-Estradiol, reference compound]
Collagen content of uterus (Collagen biosynthesis; [3]): 3.45 ± 0.11 | Body weight of rats (Collagen biosynthesis; [3]): 73 ± 3 g

inhibition at 20 µM [1]: 31%
Structure (SMILES): COC1=C(OC)C(=O)C(CCCCCCCCCC(=O)O)=C(C)C1=O [A:CO n:9 R:H]

inhibition at 20 µM [1]: 57%
Structure (SMILES): COC1=C(OC)C(=O)C(CCCC(=O)O)=C(C)C1=O [A:CO n:3 R:H]

inhibition at 25 µM ([1]; Concentration 25 μM): 68%
Structure (SMILES): COC1=C(OC)C(=O)C(CCCCO)=C(C)C1=O [A:CH2 n:3 R:H]

inhibition at 20 µM [1]: 37%
Structure (SMILES): COC1=C(OC)C(=O)C(CCCCCCCCCCO)=C(C)C1=O [A:CH2 n:9 R:H, 2,3-dimethoxy-5-methyl-6-(10'-hydroxydecyl)-1,4-benzoquinone]
Abnormalities in body weight, food intake, urinalysis and blood tests [2]: no abnormalities in body weight, food intake, urinalysis and blood tests | Collagen content of uterus (Collagen biosynthesis; [4]): 2.94 ± 0.28 | Body weight of rats (Collagen biosynthesis; [4]): 69 ± 6 g | Degree of inhibition (Collagen biosynthesis; given with 17β-Estradiol, 0.2 mg/kg of each test compound intraperitoneally once daily for 6 consecutive days, formula in footnote ** (drawing 3)): 28

inhibition at 20 µM [1]: 21%
Structure (SMILES): COC(=O)CCCCCCCCCC1=C(C)C(=O)C(OC)=C(OC)C1=O [A:CO n:9 R:CH3]
